This is an account of results in PMC9225715, “Development of PD3 and PD3-B for PDEδ inhibition to modulate KRAS activity” (Journal of Enzyme Inhibition and Medicinal Chemistry, 2022).

The target of data set [1] is T1, PDEδ (Homo sapiens, UniProt O43924).
T1 construct: made in house; host or cells: E. coli BL21(DE3)
The data set is described as follows: Fluorescence polarisation (FP)-based binding assay. The settings on record: 0.5 µM PD titrated with PDEδ, PBS pH 7.2; mean ± SD of three independent experiments; read-out: Kd value. Here is the method:
To evaluate the binding affinities of PDs to PDEδ, we also carried out a fluorescence polarisation (FP)-based binding assay after incubation of PDs with PDEδ. […] In the presence of 0.5 µM PD compounds, the polarisation value (mP value) increased following treatment with purified PDEδ in a dose-dependent manner until treatment with excess PDEδ induced saturation of binding. Among the tested compounds, 8 compounds were selected for further evaluation and SAR analysis. The binding curves for the selected 8 compounds are shown with their Kd values in Supplemental Figure S3.
(§1) Figure 3. Binding affinities of PDs measured by fluorescence polarisation. (A) Representative binding curve of PDs (PD3) titrated with PDEδ. The FP value was measured in PBS buffer (pH 7.2) containing 8 concentrations (0, 0.5, 1, 2, 4, 8, 16 and 32 μM) of PDEδ mixed with 0.5 μM PDs. Ex: 440 nm, Em: 526 nm; (B) Kd value and half-life of each compound; (C, D) Kinetic trace of PD3 and PD7 in the competition assay. PD3 was shown as a compound with the longest retention time (slow dissociation), whereas PD7 was shown as a compound with the shortest retention time (fast dissociation). The half-life was obtained by a competition binding assay using excess deltarasin. The optimal concentration of PDEδ for the competition assay was determined using the Kd value and PD concentration (0.5 μM) for making more than 68% of the binding complex. Ex: 430 nm, Em: 520 nm. TEXT PRINTED IN THE PICTURE: (A) PD3: Best-fit values Bmax: 261.7; Best-fit values Kd: 0.4991; Std. Error Bmax: 17.98; Std. […] Error Bmax 17.98 (last digit 8 or 6) and Std. Error Kd 0.1956 (5 and 6 not certain) / Panels C and D: k and half-life are printed without a label of their own; assigned to PD3 and PD7 from the panel legends (PDEδ+PD3+Del, PDEδ+PD7+Del)
PDEδ was diluted to make a series of two-fold dilutions with a starting concentration of 32 µM. The diluted solution was mixed with PBS buffer [137 mM NaCl, 2.7 mM KCl, 10 mM Na2HPO4, 2 mM KH2PO4 (pH 7.2)] and then the mixture was loaded on a 96 well black plate (SPL life Science, Gyeonggi-do, Republic of Korea). Compounds were transferred to the wells of assay plate and the final concentration of compounds was fixed to 0.5 µM. After the addition of the compound, the assay plates were incubated for 2 h at 4 °C. FP values were detected by SpectraMax M5 microplate reader (Molecular Devices, San Jose, CA) at the maximum absorption and emission wavelengths of PD compounds in assay buffer. Kd values were determined by previously reported method.
For orientation: Polarisation of emitted light reports the rotation of a fluorescent probe.

For data set [2], the target named is T1, PDEδ. The data set is described as follows: FP-based competition binding assay using excess deltarasin. As for the experimental part: as §1
To confirm that the PD compound occupies the same farnesylation binding site as deltarasin in PDEδ and to exclude the possibility that the FP signal resulted from non-specific hydrophobic interactions, we carried out a FP-based competition assay. PDs (0.5 µM) were incubated with the purified PDEδ protein for 2 h to ensure complete binding between the compound and the protein. Then, deltarasin was added to replace the PD compound in the prenyl binding pocket of PDEδ, which decreased the FP due to the free rotation of the released PD compound. As shown in Figure 3(B), the reverse correlation between Kd values and half-lives was observed (Figure 3(B) and Table 1). […] The rate constants and half-lives were measured only when the increased concentration of deltarasin produced concentration-independent kinetic parameters, which reflects complete displacement of the binding site with the deltarasin. The kinetic trace was fit to a single exponential decay to generate the dissociation rate constant and half-life. Given that the Kd value is a ratio of koff/kon in a simple bimolecular binding model, the measured half-life and Kd are not always matched due to the contribution from the association rate constant. Figure 3(C) (PD3) and 3 D (PD7) show a representative kinetic trace obtained in the competition assay.
Deltarasin, a well-known PDEδ inhibitor, was purchased from Chemietek (Indianapolis, IN) for the competition assay. Assay buffer and the plate were the same as used in fluorescence polarisation assay. The optimal concentration of PDEδ was determined based on the Kd values and ligand concentration (0.5 µM) to ensure the formation of ligand-protein complex. The mixture of PDEδ and compounds were incubated for 2 h at 4 °C. After adding deltarasin to the mixture, FP was immediately recorded by SpectraMax M5 microplate reader (Molecular Devices, San Jose, CA) with excitation at 430 nm and emission at 520 nm. In SpectraMax M5 microplate reader, single excitation and emission wavelengths need to be used for testing all compounds. Therefore, Ex 430/Em 520 was used for competition binding assay. The selected ex/em wavelengths have only a difference of less than 10 nm from the maximum wavelengths, and there was no critical issue for conducting assay. The kinetic trace was fit to a single exponential decay to generate dissociation rate constant and half-life.

The subject of another data set is PANC-1 cells. The data set is described as follows: Immunofluorescence staining of RAS localisation. Format: cell-based, human. The note with it: 18 h, anti-pan RAS antibody, PD3 10 µM, deltarasin 2, 5, 10 µM. An excerpt:
Finally, we investigated whether PD3 changes KRAS localisation by inhibiting the interaction of KRAS with PDEδ in human pancreatic cancer cells. PDEδ binds the farnesylated RAS proteins and stabilises them[19]. Therefore, PDEδ activity leads to the accumulation of RAS at the plasma membrane (PM); conversely, downmodulation of PDEδ enhances RAS diffusion in the cytoplasm. To confirm the effect of PD3 on the relocalization of RAS, we carried out immunofluorescence staining of PANC-1 cells with an anti-RAS antibody (Figure 6). […] Conversely, in the DMSO-treated control group, RAS was mainly localised in the PM of PANC-1 cells. […] It is supposed that PD3 can induce changes in RAS localisation from the plasma membrane by interrupting the protein–protein interaction of KRAS-PDEδ.
Figure 6. Immunofluorescence of PANC-1 cells with an anti-Pan-RAS antibody (red). DMSO was used as a negative control, and deltarasin was used as a positive control. Ex: 633 nm, Em: ≥638 nm. The scale bar represents 20 µm.
PANC-1 cells were seeded with cover slip in a 6-well cell culture plate (SPL life Science, Gyeonggi-do, Republic of Korea) and incubated for 24 h under 37 °C and 5% CO2 prior to the experiment. […] The fluorescence images were detected by confocal microscope (TCS-SP8 confocal laser scanning microscope, Leica, Germany). Fluorescence signal was obtained by excitation at 633 nm and emission at ≥638 nm.

In data set [3] the target is T1, PDEδ. The data set is described as follows: Fluorescence measurement after incubation with recombinant PDEδ. It counts as binding. The settings on record: 2 µM PD + 2 µM PDEδ, 20 mM Tris buffer pH 7.5, Ex 280 nm. As for the experimental part: With the structural rationale for the binding to PDEδ from the molecular docking studies, we measured the fluorescence responses of the PDs after incubation with recombinant PDEδ proteins to confirm the binding of PDs to PDEδ. We envisioned that the hydrophobic environment of the prenyl binding pocket of PDEδ, as depicted in Figure 1(C), could enhance the fluorescent signal due to the solvatochromic characteristics of IQ scaffold. In addition, tryptophan residues near the binding site of PDEδ and the fluorophore of PDs could act as a fluorescence resonance energy transfer (FRET) pair. […] All recoded spectra of PDs are depicted in Supplemental Figure S1. To compare the binding abilities of PD derivatives to the target protein, same concentration (2 µM) of PD compound was treated and then fluorescence intensity was measured in Spectrofluorometer FP-6500.
The fluorescence changes were measured to determine the interaction between PD compounds and PDEδ protein. The fluorescence spectra were obtained under Tris buffer [20 mM Tris-HCl (pH 7.5), 100 mM NaCl] at 20 °C. The concentration of PDEδ was 2 µM. After the addition of 2 µM PD compound, the mixture was gently inverted 3 times and then incubated for 1 min. The emission spectra were recorded on Spectrofluorometer FP-6500 (JASCO, Tokyo, Japan) at Ex 280 nm. The band width was 3 nm for excitation and 5 nm for emission.

[4] abbreviates: retention in PDEδ on displacement by excess deltarasin, 0.5 µM PD, mean ± SD of three independent experiments.

On to `Brc1ccc(-c2nc3ccccc3c3cc4ccccn4c23)cc1` [PD1], for which the Kd (in general, the equilibrium constant for the complex coming apart) at PDEδ [1] came out at 284 ± 140 nM. Moreover, on PDEδ [2] (setting [4]), the Half-life is 36 ± 2 min.

As to `c1ccc2cc(-c3nc4ccccc4c4cc5ccccn5c34)ccc2c1` [PD8], the Kd at PDEδ [1] was 643 ± 128 nM. Besides, on PDEδ [2] (setting [4]), the Half-life is 35 ± 7 min.

Consider `c1ccc2c(-c3nc4ccccc4c4cc5ccccn5c34)cccc2c1` [PD7], for which, at PDEδ [1], the Kd amounted to 1540 ± 180 nM. The Half-life on PDEδ [2] (representative kinetic trace, single exponential decay) is 13 min; on PDEδ [2] (setting [4]), 14 ± 1 min. The koff at PDEδ [2] (representative kinetic trace, single exponential decay, read-out: dissociation rate constant k (converted)) is 0.0009 s⁻¹.

Regarding `c1csc(-c2nc3ccccc3c3cc4ccccn4c23)c1` [PD25], the Kd at PDEδ [1] worked out at 425 ± 75 nM. The Half-life at PDEδ [2] (setting [4]) stood at 26 ± 3 min.

As for `c1ccc(Cn2c(-c3ccc(OC[C@H](C4CCNCC4)n4c(-c5ccccc5)nc5ccccc54)cc3)nc3ccccc32)cc1` [deltarasin, reference compound], the “RAS localisation at the plasma membrane (PM)” value in the data set with PANC-1 cells is on record as “reduced the amount of RAS at the PM”.

As to `c1ccc(-c2nc3ccccc3c3cc4ccccn4c23)cc1` [PD4], on PDEδ [1], the Kd came out at 505 ± 33 nM. On PDEδ [2] (setting [4]), this compound displayed a Half-life of 31 ± 9 min.

On to `COc1ccc(-c2nc3ccccc3c3cc4ccccn4c23)cc1OC` [PD6], for which the dissociation constant (Kd) on PDEδ [1] worked out at 1280 ± 261 nM. The compound further returned a Half-life on PDEδ [2] (setting [4]) of 19 ± 3 min. For the same compound, on PDEδ [3], the “Fluorescence response upon incubation with PDEδ” value is recorded as “exceeded the maximum detection limit of Spectrofluorometer”.

`COc1ccc(-c2nc3ccccc3c3cc4ccccn4c23)cc1` [PD5]: on PDEδ [1], the equilibrium dissociation constant (Kd) was 720 ± 85 nM. Moreover, the Half-life at PDEδ [2] (setting [4]) was found to be 20 ± 4 min.
